IC50 data for 36 compounds are collected here from US12570666B2, “Furoindazole derivatives” (Bayer Aktiengesellschaft, priority 2019, dated 2026).

Structures are written as SMILES.

For the assay, the target named is T1, human GPR84 receptor (Homo sapiens, UniProt Q9NQS5).
T1 construct: frozen aliquots prepared by acCELLerate; host or cells: CHO-K1
T1 sequence (Q9NQS5 whole entry): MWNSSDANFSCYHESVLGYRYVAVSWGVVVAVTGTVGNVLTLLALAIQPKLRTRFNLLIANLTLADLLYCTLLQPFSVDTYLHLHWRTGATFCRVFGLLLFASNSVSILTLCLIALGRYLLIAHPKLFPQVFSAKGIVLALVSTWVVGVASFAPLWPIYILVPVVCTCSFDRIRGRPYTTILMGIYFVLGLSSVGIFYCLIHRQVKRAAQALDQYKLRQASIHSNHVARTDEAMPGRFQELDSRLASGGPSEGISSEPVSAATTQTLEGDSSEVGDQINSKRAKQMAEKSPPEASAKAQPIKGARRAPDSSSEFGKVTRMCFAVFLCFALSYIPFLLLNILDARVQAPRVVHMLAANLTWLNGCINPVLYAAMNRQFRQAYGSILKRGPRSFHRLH
Briefly: cAMP HTRF assay for identification of cellular GPR84 antagonists. The settings on record: CHO-K1 cells stably expressing human GPR84; Forskolin + agonist 6-OAU (EC80); average or median values. It is filed as cell-based. The gist of the method: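 IC50 came from 4-parameter fits over 20 μM–0.07 nM (11 points, duplicate), normalized between DMSO (0%) and agonist-free (100% inhibition) wells. Readout: cAMP-d2/Eu-cryptate HTRF in hGPR84 CHO-K1 cells given forskolin plus agonist, compound preincubated 30 min at room temperature.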
On the technique in general: In TR-FRET formats the signal depends on donor and acceptor labels being close together.
Regarding `CC(=O)N1CC(Cn2cc3c(n2)-c2c(oc(C(=O)NC[C@@H]4CCCO4)c2C)CC3)C1` [Example 164, 2-[(1-acetylazetidin-3-yl)methyl]-8-methyl-N-[(2S)-tetrahydrofuran-2-ylmethyl]-4,5-dihydro-2H-furo[2,3-g]indazole-7-carboxamide], the half-maximal inhibitory concentration (IC50) was found to be 980 nM.
As to `CC(=O)N1CC(F)(Cn2cc3c(n2)-c2c(oc(C(=O)NC[C@@H]4CCCO4)c2C)CC3)C1` [Example 165, 2-[(1-acetyl-3-fluoroazetidin-3-yl)methyl]-8-methyl-N-[(2S)-tetrahydrofuran-2-ylmethyl]-4,5-dihydro-2H-furo[2,3-g]indazole-7-carboxamide], the 50% inhibitory concentration (IC50) was determined as 110 nM.
With `Cc1c(C(=O)NC[C@@H]2CCCO2)oc2c1-c1nn(CC3(F)CN(S(C)(=O)=O)C3)cc1CC2` [Example 166, 2-{[3-fluoro-1-(methylsulfonyl)azetidin-3-yl]methyl}-8-methyl-N-[(2S)-tetrahydrofuran-2-ylmethyl]-4,5-dihydro-2H-furo[2,3-g]indazole-7-carboxamide] the figure was 110 nM; with `COC(=O)N1CC(F)(Cn2cc3c(n2)-c2c(oc(C(=O)NC[C@@H]4CCCO4)c2C)CC3)C1` [Example 167, methyl 3-fluoro-3-[(8-methyl-7-{[(2S)-tetrahydrofuran-2-ylmethyl]carbamoyl}-4,5-dihydro-2H-furo[2,3-g]indazol-2-yl)methyl]azetidine-1-carboxylate], 60 nM.
On to `O=C(NC[C@@H]1CCCO1)c1oc2c(c1C(F)(F)F)-c1nn(C[C@H]3COCCO3)cc1C1(CC1)C2` [Example 168, 2′-[(2S)-1,4-dioxan-2-ylmethyl]-N-[(2S)-tetrahydrofuran-2-ylmethyl]-8′-(trifluoromethyl)-2′,5′-dihydrospiro[cyclopropane-1,4′-furo[2,3-g]indazole]-7′-carboxamide], for which the half-maximal inhibitory concentration (IC50) worked out at 10 nM.
Take `O=C(NC[C@@H]1COCCO1)c1oc2c(c1C(F)(F)F)-c1nn(C[C@H]3COCCO3)cc1C1(CC1)C2` [Example 169, N-{[(2R)-1,4-dioxan-2-yl]methyl}-2′-{[(2S)-1,4-dioxan-2-yl]methyl}-8′-(trifluoromethyl)-2′,5′-dihydrospiro[cyclopropane-1,4′-furo[2,3-g]indazole]-7′-carboxamide]: the IC50 is 13 nM.
In the case of `Cc1c(C(=O)NCC2CCOCC2)oc2c1-c1nn(Cc3ccccn3)cc1CC2` [Example 171] it was 3690 nM.
On to `Cc1c(C(=O)NC[C@@H]2CCCO2)oc2c1-c1nn(Cc3cc(F)ccn3)cc1CC2` [Example 182], for which the half-maximal inhibitory concentration (IC50) came to 168 nM.
On to `Cc1c(C(=O)NC[C@@H]2CCCO2)oc2c1-c1nn(Cc3cccnn3)cc1CC2` [Example 184], for which the 50% inhibitory concentration (IC50) was 447 nM.
`Cc1c(C(=O)NC[C@@H]2COCCO2)oc2c1-c1nn(Cc3cccnn3)cc1CC2` [Example 185]: the IC50 was determined as 551 nM.
For `CCc1ccc(Cn2cc3c(n2)-c2c(oc(C(=O)NC[C@@H]4CCCO4)c2C)CC3)cn1` [Example 186], the IC50 amounted to 63 nM.
In the case of `CCc1ccc(Cn2cc3c(n2)-c2c(oc(C(=O)NC[C@@H]4COCCO4)c2C)CC3)cn1` [Example 187] it was 40 nM; in that of `Cc1c(C(=O)NC[C@@H]2CCCO2)oc2c1-c1nn(Cc3ncco3)cc1CC2` [Example 188], 223 nM.
For the compound `Cc1c(C(=O)NC[C@@H]2CCCO2)oc2c1-c1nn(CC3CCOCC3)cc1CC2` [Example 189], the IC50 is 109 nM.
On to `Cc1ccc(Cn2cc3c(n2)-c2c(oc(C(=O)NC[C@@H]4COCCO4)c2C(F)(F)F)CC3)cn1` [Example 191], for which the IC50 stood at 8 nM.
In the case of `Cc1ccc(Cn2cc3c(n2)-c2c(oc(C(=O)NC[C@@H]4CCCO4)c2C(F)(F)F)CC3)cn1` [Example 192] it was 6 nM.
In the case of `O=C(NC[C@@H]1COCCO1)c1oc2c(c1C1CC1)-c1nn(C[C@H]3COCCO3)cc1CC2` [Example 193] it was 32 nM; in that of `O=C(NC[C@@H]1CCCO1)c1oc2c(c1C1CC1)-c1nn(C[C@H]3COCCO3)cc1CC2` [Example 194], 30 nM.
In the case of `Cc1c(C(=O)NC[C@@H]2CCCO2)oc2c1-c1nn(Cc3ccncc3)cc1C1(CCC1)C2` [Example 202] it was 77 nM.
In the case of `Cc1ccc(Cn2cc3c(n2)-c2c(oc(C(=O)NC[C@@H]4CCCO4)c2C)CC32CCC2)nc1` [Example 203], the IC50 worked out at 22 nM.
As for `Cc1ccc(Cn2cc3c(n2)-c2c(oc(C(=O)NC[C@@H]4COCCO4)c2C)CC32CC2)cn1` [Example 210], the IC50 turned out to be 16 nM.
With `Cc1ccc(Cn2cc3c(n2)-c2c(oc(C(=O)NC[C@@H]4CCCO4)c2C)CC32CC2)cn1` [Example 211] the figure was 17 nM.
In the case of `Cc1ccc(Cn2cc3c(n2)-c2c(oc(C(=O)NC[C@@H]4COCCO4)c2C(F)(F)F)CC32CC2)cn1` [Example 212, N-{[(2R)-1,4-dioxan-2-yl]methyl}-2′-[(6-methylpyridin-3-yl)methyl]-8′-(trifluoromethyl)-2′,5′-dihydrospiro[cyclopropane-1,4′-furo[2,3-g]indazole]-7′-carboxamide] it was 4 nM.
In the case of `Cc1ccc(Cn2cc3c(n2)-c2c(oc(C(=O)NC[C@@H]4CCCO4)c2C(F)(F)F)CC32CC2)cn1` [Example 213, 2′-[(6-methylpyridin-3-yl)methyl]-N-{[(2S)-oxolan-2-yl]methyl}-8′-(trifluoromethyl)-2′,5′-dihydrospiro[cyclopropane-1,4′-furo[2,3-g]indazole]-7′-carboxamide], the IC50 was determined as 7 nM.
With `Cc1ccc(Cn2cc3c(n2)-c2c(oc(C(=O)NC[C@@H]4CCCO4)c2C(F)(F)F)CC32CC2)nc1` [Example 214, 2′-[(5-methylpyridin-2-yl)methyl]-N-{[(2S)-oxolan-2-yl]methyl}-8′-(trifluoromethyl)-2′,5′-dihydrospiro[cyclopropane-1,4′-furo[2,3-g]indazole]-7′-carboxamide] the figure was 5 nM.
In the case of `Cc1ccc(Cn2cc3c(n2)-c2c(oc(C(=O)NC[C@@H]4COCCO4)c2C(F)(F)F)CC32CC2)nc1` [Example 215, N-{[(2R)-1,4-dioxan-2-yl]methyl}-2′-[(5-methylpyridin-2-yl)methyl]-8′-(trifluoromethyl)-2′,5′-dihydrospiro[cyclopropane-1,4′-furo[2,3-g]indazole]-7′-carboxamide] it was 3 nM; in that of `O=C(NC[C@@H]1COCCO1)c1oc2c(c1C(F)(F)F)-c1nn(Cc3ccncc3)cc1C1(CC1)C2` [Example 216, N-[(2R)-1,4-Dioxan-2-ylmethyl]-2′-(pyridin-4-ylmethyl)-8′-(trifluormethyl)-2′,5′-dihydrospiro[cyclopropan-1,4′-furo[2,3-g]indazol]-7′-carboxamide], 6 nM.
For the compound `O=C(NC[C@@H]1CCCO1)c1oc2c(c1C(F)(F)F)-c1nn(Cc3ccncc3)cc1C1(CC1)C2` [Example 217, 2′-(Pyridin-4-ylmethyl)-N-[(2S)-tetrahydrofuran-2-ylmethyl]-8′-(trifluormethyl)-2′,5′-dihydrospiro[cyclopropan-1,4′-furo[2,3-g]indazol]-7′-carboxamide], the IC50 was found to be 6 nM.
For the compound `O=C(NC[C@@H]1CCCO1)c1oc2c(c1C(F)(F)F)-c1nn(Cc3ccccn3)cc1C1(CC1)C2` [Example 218, N-{[(2S)-oxolan-2-yl]methyl}-2′-[(pyridin-2-yl)methyl]-8′-(trifluoromethyl)-2′,5′-dihydrospiro[cyclopropane-1,4′-furo[2,3-g]indazole]-7′-carboxamide], the concentration for half-maximal inhibition (IC50) was found to be 9 nM.
On to `O=C(NC[C@@H]1COCCO1)c1oc2c(c1C(F)(F)F)-c1nn(Cc3ccccn3)cc1C1(CC1)C2` [Example 219, N-[(2R)-1,4-Dioxan-2-ylmethyl]-2′-(pyridin-2-ylmethyl)-8′-(trifluormethyl)-2′,5′-dihydrospiro[cyclopropan-1,4′-furo[2,3-g]indazol]-7′-carboxamide], for which the concentration for half-maximal inhibition (IC50) is 7 nM.
Turning to `O=C(NC[C@@H]1COCCO1)c1oc2c(c1C(F)(F)F)-c1nn(C[C@@H]3COCCO3)cc1CC2` [Example 220, N,2-bis{[(2R)-1,4-dioxan-2-yl]methyl}-8-(trifluoromethyl)-4,5-dihydro-2H-furo[2,3-g]indazole-7-carboxamide], the half-maximal inhibitory concentration (IC50) was determined as 18 nM.
With `O=C(NC[C@@H]1CCCO1)c1oc2c(c1C(F)(F)F)-c1nn(C[C@H]3COCCO3)cc1CC2` [Example 221, 2-{[(2S)-1,4-dioxan-2-yl]methyl}-N-{[(2S)-oxolan-2-yl]methyl}-8-(trifluoromethyl)-4,5-dihydro-2H-furo[2,3-g]indazole-7-carboxamide] the figure was 8 nM; with `O=C(NCc1nccs1)c1oc2c(c1C(F)(F)F)-c1nn(C[C@H]3COCCO3)cc1CC2` [Example 226, 2-[(2S)-1,4-Dioxan-2-ylmethyl]-N-(1,3-thiazol-2-ylmethyl)-8-(trifluormethyl)-4,5-dihydro-2H-furo[2,3-g]indazol-7-carboxamide], 16 nM; with `Cc1cnc(CNC(=O)c2oc3c(c2C(F)(F)F)-c2nn(C[C@H]4COCCO4)cc2CC3)cn1` [Example 227, 2-[(2S)-1,4-Dioxan-2-ylmethyl]-N-[(5-methylpyrazin-2-yl)methyl]-8-(trifluormethyl)-4,5-dihydro-2H-furo[2,3-g]indazol-7-carboxamide], 24 nM.
In the case of `O=C(NCc1cnccn1)c1oc2c(c1C(F)(F)F)-c1nn(C[C@H]3COCCO3)cc1CC2` [Example 228, 2-[(2S)-1,4-Dioxan-2-ylmethyl]-N-(pyrazin-2-ylmethyl)-8-(trifluormethyl)-4,5-dihydro-2H-furo[2,3-g]indazol-7-carboxamide] it was 38 nM.
`Cn1cnc(CNC(=O)c2oc3c(c2C(F)(F)F)-c2nn(C[C@H]4COCCO4)cc2CC3)c1` [Example 229, 2-[(2S)-1,4-Dioxan-2-ylmethyl]-N-[(1-methyl-1H-imidazol-4-yl)methyl]-8-(trifluormethyl)-4,5-dihydro-2H-furo[2,3-g]indazol-7-carboxamide]: the half-inhibitory concentration (IC50) was 89 nM.

The IC50 is the concentration that gives 50% inhibition.
